Structures can show the parent of a compound that is named as a salt.
test system: hDMFa myofibroblast cells

Compound | Compound Myofibroblast Cytotoxicity Activity
CCC(C)(C)c1ccc(CC(C)CN2C[C@@H](C)O[C@@H](C)C2)cc1 (stereo partly drawn) [Cmpd 113, Amorolfine HCl] | +++
COc1cc(NS(C)(=O)=O)ccc1Nc1c2ccccc2nc2ccccc12.Cl [Cmpd 116, Amsacrine hydrochloride] | +++
S=C(NCc1ccc2c(c1)OCO2)N1CCN(c2ncnc3c2oc2ccccc23)CC1 [Cmpd 117, Amuvatinib (MP-470,HPK 56)] | ++
C[C@@H](O[C@H]1OCCN(Cc2n[nH]c(=O)[nH]2)[C@H]1c1ccc(F)cc1)c1cc(C(F)(F)F)cc(C(F)(F)F)c1 [Cmpd 126, Aprepitant] | ++++
O=C1CCc2ccc(OCCCCN3CCN(c4cccc(Cl)c4Cl)CC3)cc2N1 [Cmpd 129, Aripiprazole] | +++
COc1cccc2c1cc([N+](=O)[O-])c1c(C(=O)O)cc3c(c12)OCO3 [Cmpd 130, Aristolochic Acid A] | ++
C[C@H]1[C@H](OC(=O)CCC(=O)O)O[C@@H]2O[C@@]3(C)CC[C@H]4[C@H](C)CC[C@@H]1[C@@]24OO3 [Cmpd 132, Artesunate] | +++
CC[C@@H]1/C=C(\C)C[C@H](C)C[C@H](OC)[C@H]2O[C@@](O)(C(=O)C(=O)N3CCCC[C@H]3C(=O)O[C@H](/C(C)=C/[C@@H]3CC[C@@H](O)[C@H](OC)C3)[C@H](C)[C@@H](O)CC1=O)[C@H](C)C[C@@H]2OC [Cmpd 133, Ascomycin(FK 520)] | +++
COc1ccc(CCN2CCC(Nc3nc4ccccc4n3Cc3ccc(F)cc3)CC2)cc1 [Cmpd 136, Astemizole] | ++++
COC(=O)N[C@H](C(=O)N[C@@H](Cc1ccccc1)[C@@H](O)CN(Cc1ccc(-c2ccccn2)cc1)NC(=O)[C@@H](NC(=O)OC)C(C)(C)C)C(C)(C)C [Cmpd 138, Atazanavir] | ++
CC(C)c1c(C(=O)Nc2ccccc2)c(-c2ccccc2)c(-c2ccc(F)cc2)n1CC[C@@H](O)C[C@@H](O)CC(=O)[O-].CC(C)c1c(C(=O)Nc2ccccc2)c(-c2ccccc2)c(-c2ccc(F)cc2)n1CC[C@@H](O)C[C@@H](O)CC(=O)[O-].[Ca+2] [Cmpd 140, Atorvastatin Calcium] | ++++
COc1ccc(CC2c3cc(OC)c(OC)cc3CC[N+]2(C)CCC(=O)OCCCCCOC(=O)CC[N+]2(C)CCc3cc(OC)c(OC)cc3C2Cc2ccc(OC)c(OC)c2)cc1OC (stereo not drawn) [Cmpd 142, Atracurium Besylate] | +++
CCOc1nc2cccc(C(=O)OCc3oc(=O)oc3C)c2n1Cc1ccc(-c2ccccc2-c2noc(=O)[nH]2)cc1 [Cmpd 149, Azilsartan Medoxomil] | ++
Cc1ccc(NC(=O)c2ccc(CN3CC[C@H](N(C)C)C3)c(C(F)(F)F)c2)cc1Nc1nccc(-c2cncnc2)n1 [Cmpd 152, Bafetinib (INNO-406)] | +++
CNC1CCCN(c2c(F)cc3c(=O)c(C(=O)O)cn(C4CC4)c3c2OC)C1 (stereo not drawn) [Cmpd 154, Balofloxacin Dihydrate] | ++
COC(=O)[C@]12CCC(C)(C)C[C@H]1[C@H]1C(=O)C=C3[C@@]4(C)C=C(C#N)C(=O)C(C)(C)[C@@H]4CC[C@@]3(C)[C@]1(C)CC2 [Cmpd 156, Bardoxolone methyl] | +++++
CC(C)(C)c1ccc(S(=O)(=O)/C=C/C#N)cc1 [Cmpd 157, Bay 11-7085] | +++++
Cc1ccc(S(=O)(=O)/C=C/C#N)cc1 [Cmpd 158, Bay 11-7821(BAY 11-7082)] | +++++
Cc1c(-c2ccc(O)cc2)n(Cc2ccc(OCCN3CCCCCC3)cc2)c2ccc(O)cc12 [Cmpd 159, Bazedoxifene acetate] | ++++
COC(=O)C1=C(C)NC(C)=C(C(=O)OC2CCCN(Cc3ccccc3)C2)C1c1cccc([N+](=O)[O-])c1 (stereo not drawn) [Cmpd 161, Benidipine HCl] | ++

Compound | Compound Myofibroblast Cytotoxicity Activity
NC(CO)C(=O)NNCc1ccc(O)c(O)c1O (stereo not drawn) [Cmpd 162, Benserazide HCl] | ++
Cl.N=C(N)c1ccccc1 [Cmpd 163, Benzamidine HCl] | +++
CCc1oc2ccccc2c1C(=O)c1cc(Br)c(O)c(Br)c1 [Cmpd 164, Benzbromarone] | ++++
CCOC(=O)c1ccc(N)cc1 [Cmpd 166, Benzocaine] | ++
O=C(O)c1ccccc1 [Cmpd 167, Benzoic Acid] | ++
O=C(c1ccccc1)c1ccccc1 [Cmpd 168, Benzophenone] | ++
COc1ccc2cc3[n+](cc2c1OC)CCc1cc2c(cc1-3)OCO2.[Cl-] [Cmpd 172, Berberine hydrochloride] | ++
COc1ccc2cc3[n+](cc2c1OC)CCc1cc2c(cc1-3)OCO2 [Cmpd 173, Berberine Sulfate] | ++
CNCCc1ccccn1.CS(=O)(=O)O.CS(=O)(=O)O [Cmpd 175, Betahistine mesylate] | ++
CCCCC(=O)O[C@]1(C(=O)CO)[C@@H](C)C[C@H]2[C@@H]3CCC4=CC(=O)C=C[C@]4(C)[C@@]3(F)[C@@H](O)C[C@@]21C [Cmpd 176, Betamethasone Valerate] | ++
O=C(O)CCNC(=O)c1ccccc1 [Cmpd 177, Betamipron] | +++++
C=C(c1ccc(C(=O)O)cc1)c1cc2c(cc1C)C(C)(C)CCC2(C)C [Cmpd 178, Bexarotene] | ++++
c1ccc(-c2ccc(C(c3ccccc3)n3ccnc3)cc2)cc1 (stereo not drawn) [Cmpd 182, Bifonazole] | +++
Cc1ccc(-n2nc(C(C)(C)C)cc2NC(=O)Nc2ccc(OCCN3CCOCC3)c3ccccc23)cc1 [Cmpd 183, BIRB 796 (Doramapimod)] | ++
CC[C@H](NC(=O)[C@H](C)NC)C(=O)N1C[C@@H](O)C[C@H]1Cc1c(-c2[nH]c3cc(F)ccc3c2C[C@@H]2C[C@H](O)CN2C(=O)[C@H](CC)NC(=O)[C@H](C)NC)[nH]c2cc(F)ccc12 [Cmpd 184, Birinapant (TL32711)] | ++
CC(C)(c1ccc(O)cc1)c1ccc(O)cc1 [Cmpd 186, Bisphenol A] | ++
CCN1CCN(c2cc(-c3ccc(F)cc3)c3c(n2)CCCCCC3)CC1 [Cmpd 187, Blonanserin] | +++
O=c1ccc2ccc(OCCCCN3CCN(c4cccc5sccc45)CC3)cc2[nH]1 [Cmpd 191, Brexpiprazole] | +++
Oc1c(Br)cc(Br)c2cccnc12 [Cmpd 194, Broxyquinoline] | +++
O=C(O)CCC(=O)O [Cmpd 196, Butane diacid] | ++

Compound | Compound Myofibroblast Cytotoxicity Activity
CN(Cc1ccc(C(C)(C)C)cc1)Cc1cccc2ccccc12 [Cmpd 197, Butenafine HCl] | +++
Clc1ccc(CCC(Cn2ccnc2)Sc2c(Cl)cccc2Cl)cc1 (stereo not drawn) [Cmpd 198, Butoconazole nitrate] | +++
COc1cc2nccc(Oc3ccc(NC(=O)C4(C(=O)Nc5ccc(F)cc5)CC4)cc3)c2cc1OC.O=C(O)C[C@H](O)C(=O)O [Cmpd 199, Cabozantinib malate (XL184)] | ++
O=C(O)/C=C/c1ccc(O)c(O)c1 [Cmpd 200, Caffeic acid] | +
O=C(/C=C/c1ccc(O)c(O)c1)OCCc1ccccc1 [Cmpd 201] | ++
C=C1CC[C@H](O)C/C1=C/C=C1\CCC[C@]2(C)[C@@H]([C@H](C)CCCC(C)(C)O)CC[C@@H]12 [Cmpd 202, Calcifediol] | +++
C=C1/C(=C\C=C2/CCC[C@]3(C)[C@@H]([C@H](C)/C=C/[C@@H](O)C4CC4)CC[C@@H]23)C[C@@H](O)C[C@@H]1O [Cmpd 203, Calcipotriol] | +++
C=C1/C(=C\C=C2/CCC[C@]3(C)[C@@H]([C@H](C)CCCC(C)(C)O)CC[C@@H]23)C[C@@H](O)C[C@@H]1O [Cmpd 204, Calcitriol] | +++
O=S(=O)([O-])c1cc(O)ccc1O.O=S(=O)([O-])c1cc(O)ccc1O.[Ca+2] [Cmpd 205, Calcium dobesilate] | ++
C=C(C)[C@@H]1CC[C@@]2(C)[C@H]1[C@H]1CCC3[C@@]4(C)CC[C@H](O)C(C)(C)[C@@H]4CC[C@@]3(C)[C@]1(C)C[C@@H]2O (stereo partly drawn) [Cmpd 207, Calenduladiol] | +
Cc1ccc([C@@H]2O[C@H](CO)[C@@H](O)[C@H](O)[C@H]2O)cc1Cc1ccc(-c2ccc(F)cc2)s1.O [Cmpd 209, Canagliflozin (hemihydrate)] | +++++
CCOc1nc2cccc(C(=O)O)c2n1Cc1ccc(-c2ccccc2-c2nnn[nH]2)cc1 [Cmpd 210, Candesartan] | ++
CCOc1nc2cccc(C(=O)OC(C)OC(=O)OC3CCCCC3)c2n1Cc1ccc(-c2ccccc2-c2nnn[nH]2)cc1 (stereo not drawn) [Cmpd 211, Candesartan Cilexetil] | +++
CCCCCCCCCC(=O)O [Cmpd 212, Caprate (10:0)] | ++
C[N+](C)(C)CCOC(N)=O.[Cl-] [Cmpd 214, Carbamoylcholine chloride] | ++
O=NN(CCCl)C(=O)NCCCl [Cmpd 218, Carmustine] | ++
CC(C)(C)NCC(O)COc1cccc2c1CCC(=O)N2 (stereo not drawn) [Cmpd 219, Carteolol HCl] | ++
Cc1ccc(C(C)C)cc1O [Cmpd 220, Carvacrol] | ++
COc1ccccc1OCCNCC(O)COc1cccc2[nH]c3ccccc3c12 (stereo not drawn) [Cmpd 221, Carvedilol] | +++
C=C1CC[C@H]2O[C@]2(C)CC[C@@H]2[C@@H]1CC2(C)C [Cmpd 222, Caryophyllene Oxide] | ++

— US20260102359A1, “COMBINATION TREATMENT OF DERMAL AND TRANSDERMAL FIBROTIC DISEASES, DISORDERS AND ASSOCIATED PAIN AND INFLAMMATION” (ERESINA, LLC, priority 2022, published 2026)
